According to patent US12479840B2, “HMG-CoA reductase degradation inducing compound” (Uppthera, priority 2020, dated 2025):

target: T1, HMG-CoA reductase (Homo sapiens, UniProt P04035); assay: HMG-CoA reductase (HMGCR) degradation in HepG2 cells by western blotting; assay type: cell-based; settings: treated for 18 hours, ratio of HMG-CoA reductase to GAPDH, read-out: DC50
T1 construct: endogenous in cells; host or cells: HepG2 (Korea Cell Line Bank)
T1 sequence (P04035 1-888): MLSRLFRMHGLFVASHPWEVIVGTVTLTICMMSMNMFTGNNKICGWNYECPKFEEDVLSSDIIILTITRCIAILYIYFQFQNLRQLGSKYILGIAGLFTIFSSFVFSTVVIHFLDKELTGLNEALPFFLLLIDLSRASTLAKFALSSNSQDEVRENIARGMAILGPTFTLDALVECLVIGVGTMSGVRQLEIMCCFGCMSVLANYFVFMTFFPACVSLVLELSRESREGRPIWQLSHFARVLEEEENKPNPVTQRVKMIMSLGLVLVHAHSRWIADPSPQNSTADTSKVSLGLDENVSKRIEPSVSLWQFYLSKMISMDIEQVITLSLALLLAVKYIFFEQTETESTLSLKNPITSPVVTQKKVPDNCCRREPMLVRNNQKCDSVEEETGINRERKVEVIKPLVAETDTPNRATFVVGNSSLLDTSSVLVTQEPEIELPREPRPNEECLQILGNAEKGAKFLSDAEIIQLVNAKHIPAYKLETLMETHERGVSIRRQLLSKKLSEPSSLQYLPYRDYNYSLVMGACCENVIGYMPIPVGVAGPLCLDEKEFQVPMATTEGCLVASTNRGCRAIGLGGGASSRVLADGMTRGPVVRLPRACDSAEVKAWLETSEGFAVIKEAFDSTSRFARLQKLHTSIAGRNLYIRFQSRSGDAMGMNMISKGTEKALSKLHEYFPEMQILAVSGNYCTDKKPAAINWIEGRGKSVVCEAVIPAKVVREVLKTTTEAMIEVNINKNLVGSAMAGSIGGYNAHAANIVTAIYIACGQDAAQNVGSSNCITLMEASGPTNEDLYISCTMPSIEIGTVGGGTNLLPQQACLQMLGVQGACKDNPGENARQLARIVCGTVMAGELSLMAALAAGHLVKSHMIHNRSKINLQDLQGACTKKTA
Summary of the method: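 Western blot read-out: HMGCR protein probed (1:500, 16 hours at 4° C) alongside GAPDH loading control on 15 μg BCA-normalised RIPA lysates. Lysates came from HepG2 cells (P105–P110) exposed for 18 hours to a 10-point, three-fold series starting at 3 μM.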

DC50 [nM] | SMILES
< 50 | Cc1ncsc1-c1ccc(CNC(=O)[C@@H]2C[C@@H](O)CN2C(=O)[C@@H](NC(=O)CCCCCCCNC(=O)O[C@H]2C[C@@H](C)C=C3C=C[C@H](C)[C@H](CC[C@@H]4C[C@@H](O)CC(=O)O4)[C@H]32)C(C)(C)C)cc1 [Compound 158, (1S,3R,7S,8S,8aR)-8-(2-((2R,4R)-4-hydroxy-6-oxotetrahydro-2H-pyran-2-yl)ethyl)-3,7-dimethyl-1,2,3,7,8,8a-hexahydronaphthalen-1-yl (8-(((S)-1-((2S,4R)-4-hydroxy-2-((4-(4-methylthiazol-5-yl)benzyl)carbamoyl)pyrrolidin-1-yl)-3,3-dimethyl-1-oxobutan-2-yl)amino)-8-oxooctyl)carbamate]
< 50 | Cc1ncsc1-c1ccc(CNC(=O)[C@@H]2C[C@@H](O)CN2C(=O)[C@@H](NC(=O)CCCCCCCCCCNC(=O)O[C@H]2C[C@@H](C)C=C3C=C[C@H](C)[C@H](CC[C@@H]4C[C@@H](O)CC(=O)O4)[C@H]32)C(C)(C)C)cc1 [Compound 160, (1S,3R,7S,8S,8aR)-8-(2-((2R,4R)-4-hydroxy-6-oxotetrahydro-21H-pyran-2-yl)ethyl)-3,7-dimethyl-1,2,3,7,8,8a-hexahydronaphthalen-1-yl (11-(((S)-1-((2S,4R)-4-hydroxy-2-((4-(4-methylthiazol-5-yl)benzyl)carbamoyl)pyrrolidin-1-yl)-3,3-dimethyl-1-oxobutan-2-yl)amino)-11-oxoundecyl)carbamate]
< 50 | Cc1ncsc1-c1ccc(CNC(=O)[C@@H]2C[C@@H](O)CN2C(=O)[C@@H](NC(=O)CCCc2cn(CCCCNC(=O)O[C@H]3C[C@@H](C)C=C4C=C[C@H](C)[C@H](CC[C@@H]5C[C@@H](O)CC(=O)O5)[C@H]43)nn2)C(C)(C)C)cc1 [Compound 161, (1S,3R,7S,8S,8aR)-8-(2-((2R,4R)-4-hydroxy-6-oxotetrahydro-2H-pyran-2-yl)ethyl)-3,7-dimethyl-1,2,3,7,8,8a-hexahydronaphthalen-1-yl (4-(4-(4-(((S)-1-((2S,4R)-4-hydroxy-2-((4-(4-methylthiazol-5-yl)benzyl)carbamoyl)pyrrolidin-1-yl)-3,3-dimethyl-1-oxobutan-2-yl)amino)-4-oxobutyl)-1H-1,2,3-triazol-1-yl)butyl)carbamate]
< 50 | Cc1ncsc1-c1ccc(CNC(=O)[C@@H]2C[C@@H](O)CN2C(=O)[C@@H](NC(=O)CCCN2CCC(CCCNC(=O)O[C@@H]3C[C@H](C)C=C4C=C[C@@H](C)[C@@H](CC[C@H]5C[C@H](O)CC(=O)O5)[C@@H]43)CC2)C(C)(C)C)cc1 [Compound 162, (1R,3S,7R,8R,8aS)-8-(2-((2S,4S)-4-hydroxy-6-oxotetrahydro-2H-pyran-2-yl)ethyl)-3,7-dimethyl-1,2,3,7,8,8a-hexahydronaphthalen-1-yl (3-(1-(4-(((S)-1-((2S,4R)-4-hydroxy-2-((4-(4-methylthiazol-5-yl)benzyl)carbamoyl)pyrrolidin-1-yl)-3,3-dimethyl-1-oxobutan-2-yl)amino)-4-oxobutyl)piperidin-4-yl)propyl)carbamate]
< 50 | Cc1ncsc1-c1ccc(CNC(=O)[C@@H]2C[C@@H](O)CN2C(=O)[C@@H](NC(=O)C2(F)CC2)C(C)(C)C)c(OCCCCCCCCNC(=O)O[C@H]2C[C@@H](C)C=C3C=C[C@H](C)[C@H](CC[C@@H]4C[C@@H](O)CC(=O)O4)[C@H]32)c1 [Compound 165, (1S,3R,7S,8S,8aR)-8-(2-((2R,4R)-4-hydroxy-6-oxotetrahydro-2H-pyran-2-yl)ethyl)-3,7-dimethyl-1,2,3,7,8,8a-hexahydronaphthalen-1-yl (8-(2-(((2S,4R)-1-((S)-2-(1-fluorocyclopropane-1-carboxamido)-3,3-dimethylbutanoyl)-4-hydroxypyrrolidine-2-carboxamido)methyl)-5-(4-methylthiazol-5-yl)phenoxy)octyl)carbamate]
< 50 | Cc1ncsc1-c1ccc(CNC(=O)[C@@H]2C[C@@H](O)CN2C(=O)[C@@H](NC(=O)C2(F)CC2)C(C)(C)C)c(OCCCCCCCCCNC(=O)O[C@H]2C[C@@H](C)C=C3C=C[C@H](C)[C@H](CC[C@@H]4C[C@@H](O)CC(=O)O4)[C@H]32)c1 [Compound 166, (1S,3R,7S,8S,8aR)-8-(2-((2R,4R)-4-hydroxy-6-oxotetrahydro-2H-pyran-2-yl)ethyl)-3,7-dimethyl-1,2,3,7,8,8a-hexahydronaphthalen-1-yl (9-(2-(((2S,4R)-1-((S)-2-(1-fluorocyclopropane-1-carboxamido)-3,3-dimethylbutanoyl)-4-hydroxypyrrolidine-2-carboxamido)methyl)-5-(4-methylthiazol-5-yl)phenoxy)nonyl)carbamate]
< 50 | Cc1ncsc1-c1ccc(CNC(=O)[C@@H]2C[C@@H](O)CN2C(=O)[C@@H](NC(=O)C2(F)CC2)C(C)(C)C)c(OCCCCCCCCCCNC(=O)O[C@H]2C[C@@H](C)C=C3C=C[C@H](C)[C@H](CC[C@@H]4C[C@@H](O)CC(=O)O4)[C@H]32)c1 [Compound 167, (1S,3R,7S,8S,8aR)-8-(2-((2R,4R)-4-hydroxy-6-oxotetrahydro-2H-pyran-2-yl)ethyl)-3,7-dimethyl-1,2,3,7,8,8a-hexahydronaphthalen-1-yl (10-(2-(((2S,4R)-1-((S)-2-(1-fluorocyclopropane-1-carboxamido)-3,3-dimethylbutanoyl)-4-hydroxypyrrolidine-2-carboxamido)methyl)-5-(4-methylthiazol-5-yl)phenoxy)decyl)carbamate]
< 50 | Cc1ncsc1-c1ccc(CNC(=O)[C@H]2C[C@H](O)CN2C(=O)[C@H](NC(=O)C2(F)CC2)C(C)(C)C)c(OCC(=O)N2CCC(CCCNC(=O)O[C@H]3C[C@@H](C)C=C4C=C[C@H](C)[C@H](CC[C@@H]5C[C@@H](O)CC(=O)O5)[C@H]43)CC2)c1 [Compound 168, (1S,3R,7S,8S,8aR)-8-(2-((2R,4R)-4-hydroxy-6-oxotetrahydro-2H-pyran-2-yl)ethyl)-3,7-dimethyl-1,2,3,7,8,8a-hexahydronaphthalen-1-yl (3-(1-(2-(2-(((2R,4S)-1-((R)-2-(1-fluorocyclopropane-1-carboxamido)-3,3-dimethylbutanoyl)-4-hydroxypyrrolidine-2-carboxamido)methyl)-5-(4-methylthiazol-5-yl)phenoxy)acetyl)piperidin-4-yl)propyl)carbamate]
< 50 | Cc1ncsc1-c1ccc(CNC(=O)[C@@H]2C[C@@H](O)CN2C(=O)[C@@H](NC(=O)C2(F)CC2)C(C)(C)C)c(OCCc2cn(CCCNC(=O)O[C@@H]3C[C@H](C)C=C4C=C[C@@H](C)[C@@H](CC[C@@H]5C[C@@H](O)CC(=O)O5)[C@@H]43)nn2)c1 [Compound 169, (1R,3S,7R,8R,8aS)-8-(2-((2R,4R)-4-hydroxy-6-oxotetrahydro-2H-pyran-2-yl)ethyl)-3,7-dimethyl-1,2,3,7,8,8a-hexahydronaphthalen-1-yl (3-(4-(2-(2-(((2S,4R)-1-((S)-2-(1-fluorocyclopropane-1-carboxamido)-3,3-dimethylbutanoyl)-4-hydroxypyrrolidine-2-carboxamido)methyl)-5-(4-methylthiazol-5-yl)phenoxy)ethyl)-1H-1,2,3-triazol-1-yl)propyl)carbamate]
